Measurements taken from patent publication US20110105326A1, “Method for Enhancing the Rainfastness of Glyphosate” (BASF SE, priority 2008, published 2011).

Legend:
Assay type in all cases: in vivo
[1] = system: Echinochloa colonum (ECHCO); assay: herbicidal action with/without simulated rainfall after treatment, Echinochloa colonum; settings: 1500 g/ha diuron, 1080 g/ha glyphosate; for herbicidal action against Echinochloa colonum (ECHCO): control without simulated rainfall, Example 15.1
Description: (§1) The enhancement of the rainfastness of glyphosate was determined via the herbicidal activity of the mixture comprising glyphosate and the respective rainfastness enhancing herbicidal component B as well as of the single herbicidal components in relation to simulated rainfall at different time intervals.
(§2) The evaluation of the damage caused by the method and the compositions the according to the present invention and the single herbicidal components was carried out using a scale from 0 to 100%, compared to the untreated control plots. Here, 0 means no damage and 100 means complete destruction of the plants of a respective weed or crop species.
(§3) The application was performed with a fixed spayer system with air pressurization and with a tank spray volume of two liters. The speed of the spray device over the plants was adjusted for a spray volume of 200 I/ha. The spray device was a spray barr with four nozzles from the type Teejet XR 11002VS with a space of 50 cm between each nozzle.
(§4) The application was performed at a weed stage of 6 to 8 leaves. After the application of the formulated herbicides the leaves were washed through rain of 20 mm using a fixed rain simulator system at following time interval: 15 min, 30 min, 1, 2, 3, 4 and 6 hours after treatment.

[2] = system: Ipomoea grandifolia (IPOGR); assay: herbicidal action with/without simulated rainfall after treatment, Ipomoea grandifolia; settings: 1500 g/ha diuron, 1080 g/ha glyphosate; for herbicidal action against Ipomoea grandifolia (IPOGR): control without simulated rainfall, Example 16.1
Description: as §1, §2, §3, §4

[3] = system: Brachiaria decumbens (BRADE); assay: herbicidal action with/without simulated rainfall after treatment, Brachiaria decumbens; settings: 1500 g/ha diuron, 1080 g/ha glyphosate; for herbicidal action against Brachiaria decumbens (BRADE): control without simulated rainfall, Example 17.1
Description: as §1, §2, §3, §4

CN(C)C(=O)Nc1ccc(Cl)c(Cl)c1 [Diuron, diuron]
herbicidal action against Echinochloa colonum (ECHCO) ([1]; 1 DAA): 0 | herbicidal action against Echinochloa colonum (ECHCO) ([1]; 2 DAA): 0 | herbicidal action against Echinochloa colonum (ECHCO) ([1]; 3 DAA): 2.66 | herbicidal action against Echinochloa colonum (ECHCO) ([1]; 7 DAA): 61 | herbicidal action against ECHCO ([1]; simulated rainfall 30 min after treatment, 1 DAA, Example 15.2): 0 | herbicidal action against ECHCO ([1]; simulated rainfall 30 min after treatment, 2 DAA, Example 15.2): 0 | herbicidal action against ECHCO ([1]; simulated rainfall 30 min after treatment, 3 DAA, Example 15.2): 6 | herbicidal action against ECHCO ([1]; simulated rainfall 30 min after treatment, 7 DAA, Example 15.2): 75.33 | herbicidal action against ECHCO ([1]; simulated rainfall 2 hours after treatment, 1 DAA, Example 15.3): 0 | herbicidal action against ECHCO ([1]; simulated rainfall 2 hours after treatment, 2 DAA, Example 15.3): 0 | herbicidal action against ECHCO ([1]; simulated rainfall 2 hours after treatment, 3 DAA, Example 15.3): 1.66 | herbicidal action against ECHCO ([1]; simulated rainfall 2 hours after treatment, 7 DAA, Example 15.3): 58.33 | herbicidal action against Ipomoea grandifolia (IPOGR) ([2]; 1 DAA): 0 | herbicidal action against Ipomoea grandifolia (IPOGR) ([2]; 2 DAA): 0 | herbicidal action against Ipomoea grandifolia (IPOGR) ([2]; 3 DAA): 1.33 | herbicidal action against Ipomoea grandifolia (IPOGR) ([2]; 7 DAA): 7.33 | herbicidal action against IPOGR ([2]; simulated rainfall 15 min after treatment, 1 DAA, Example 16.2): 0 | herbicidal action against IPOGR ([2]; simulated rainfall 15 min after treatment, 2 DAA, Example 16.2): 1 | herbicidal action against IPOGR ([2]; simulated rainfall 15 min after treatment, 3 DAA, Example 16.2): 3.33 | herbicidal action against IPOGR ([2]; simulated rainfall 15 min after treatment, 7 DAA, Example 16.2): 21 | herbicidal action against IPOGR ([2]; simulated rainfall 30 min after treatment, 1 DAA, Example 16.3): 0 | herbicidal action against IPOGR ([2]; simulated rainfall 30 min after treatment, 2 DAA, Example 16.3): 0 | herbicidal action against IPOGR ([2]; simulated rainfall 30 min after treatment, 3 DAA, Example 16.3): 3 | herbicidal action against IPOGR ([2]; simulated rainfall 30 min after treatment, 7 DAA, Example 16.3): 16.66 | herbicidal action against IPOGR ([2]; simulated rainfall 2 hours after treatment, 1 DAA, Example 16.4): 0 | herbicidal action against IPOGR ([2]; simulated rainfall 2 hours after treatment, 2 DAA, Example 16.4): 0 | herbicidal action against IPOGR ([2]; simulated rainfall 2 hours after treatment, 3 DAA, Example 16.4): 0.33 | herbicidal action against IPOGR ([2]; simulated rainfall 2 hours after treatment, 7 DAA, Example 16.4): 11.66 | herbicidal action against IPOGR ([2]; simulated rainfall 6 hours after treatment, 1 DAA, Example 16.5): 0 | herbicidal action against IPOGR ([2]; simulated rainfall 6 hours after treatment, 2 DAA, Example 16.5): 1 | herbicidal action against IPOGR ([2]; simulated rainfall 6 hours after treatment, 3 DAA, Example 16.5): 2 | herbicidal action against IPOGR ([2]; simulated rainfall 6 hours after treatment, 7 DAA, Example 16.5): 25.55 | herbicidal action against Brachiaria decumbens (BRADE) ([3]; 1 DAA): 0 | herbicidal action against Brachiaria decumbens (BRADE) ([3]; 2 DAA): 0 | herbicidal action against Brachiaria decumbens (BRADE) ([3]; 3 DAA): 0 | herbicidal action against Brachiaria decumbens (BRADE) ([3]; 7 DAA): 11 | herbicidal action against Brachiaria decumbens (BRADE) ([3]; 14 DAA): 78.33 | herbicidal action against BRADE ([3]; simulated rainfall 2 hours after treatment, 1 DAA, Example 17.2): 0 | herbicidal action against BRADE ([3]; simulated rainfall 2 hours after treatment, 2 DAA, Example 17.2): 0 | herbicidal action against BRADE ([3]; simulated rainfall 2 hours after treatment, 3 DAA, Example 17.2): 0 | herbicidal action against BRADE ([3]; simulated rainfall 2 hours after treatment, 7 DAA, Example 17.2): 56 | herbicidal action against BRADE ([3]; simulated rainfall 2 hours after treatment, 14 DAA, Example 17.2): 100 | herbicidal action against BRADE ([3]; simulated rainfall 6 hours after treatment, 1 DAA, Example 17.3): 0 | herbicidal action against BRADE ([3]; simulated rainfall 6 hours after treatment, 2 DAA, Example 17.3): 0 | herbicidal action against BRADE ([3]; simulated rainfall 6 hours after treatment, 3 DAA, Example 17.3): 0 | herbicidal action against BRADE ([3]; simulated rainfall 6 hours after treatment, 7 DAA, Example 17.3): 30 | herbicidal action against BRADE ([3]; simulated rainfall 6 hours after treatment, 14 DAA, Example 17.3): 100
